We go through four compounds from US8841132B2, “Method for detecting compounds containing sulfenic acid using a 1,3-cyclohexanedione-based probe” (Wake Forest University Health Sciences, priority 2004, dated 2014).

In series [1] the target is T1, sulfenic acid form of C165S AhpC (Salmonella typhimurium, UniProt P0A251, C166S).
T1 construct: made in house
Kind of series: Labeling of sulfenic acid-containing C165S AhpC, adducts analysed by ESI-MS. The series is classed as biochemical. The settings on record: for Observed increase in mass of product compared with R—SH form / covalent adduct formation with the sulfenic acid form of the peroxidase: ESI-MS, 5 mM reagent; for Observed increase in mass of product compared with R—SH form: 60 min, room temperature; for covalent adduct formation with the sulfenic acid form of the peroxidase: aqueous neutral pH buffer; for labeling of the protein when 1:1 mixtures of 6 and 7 are added: ESI-MS of intact proteins. The method, then: (§1) Reactivity of new compounds toward cysteine sulfenic acids in proteins. To test for the reactivity of 6 and 7 toward protein sulfenic acids, a mutant, cysteine-dependent peroxidase enzyme was used in which the oxidized, sulfenic acid form of the cysteinyl redox center is stabilized, yet accessible (the C165S mutant of AhpC from Salmonella typhimurium, a peroxiredoxin) (3, 9, 14).
[drawing 11] washed proteins following incubations with the labeling agents (FIG. 1 and data not shown). As illustrated in FIG. 1 and summarized in Table 1, mass spectrometry results were completely consistent with the expected reactivity and products generated with the sulfenic acid-containing protein using dimedone, 1,3-cyclohexadione and our two new labeling agents (6 and 7). […] Under the conditions used, the sulfenic acid form of the protein either reacts with the reagent or is further oxidized during the workup or analysis of the sample, and is therefore not observed. In a subsequent experiment
Generation of pure, sulfenic acid-containing C165S AhpC. The C165S mutant of AhpC was expressed in bacteria and purified in the presence of 5 mM 1,4-dithiothreitol (added to all buffers) essentially as described previously (9). Purification of wild type AhpC was also carried out as previously described (10). For generation of the sulfenic acid form of C165S AhpC, thawed enzyme in 25 mM phosphate buffer at pH 7, containing 1 mM EDTA, was washed free of the dithiothreitol and transferred into fresh buffer using a PD-10 column (Amersham Biosciences), and pooled fractions were transferred to an anerobic cuvette. The protein solution (160 nmol in 0.60 mL) was made anaerobic by repeated cycles of argon and vacuum over about 30 min, then rapidly titrated with 11 mM hydrogen peroxide to give a maximal absorbance signal at ˜367 nm for the sulfenate anion as described previously (3, 4). In subsequent experiments, optimal sulfenic acid formation was observed by adding and mixing the hydrogen peroxide much more slowly (additions of about 0.05 eq and thorough mixing every ˜1 min) and quantitating the sulfenic acid formed using a freshly-prepared 2-nitro-5-thiobenzoate (TNB) solution (0.28 mL) and a 60 μL aliquot of the protein removed anaerobically from the cuvette (3, 4). Using this method, ˜73% of the protein was converted to the sulfenic acid form after addition of 1.08 eq of hydrogen peroxide. Protein was kept in the anaerobic cuvette at room temperature for several hours before conducting experiments with no loss in sulfenic acid content.
(§2) Labeling of sulfenic acid-containing C165S AhpC for spectral and mass spectrometric analysis. The pure, oxidized enzyme (32 μL, 6 nmol each) from the anaerobic cuvette was added to argon-flushed 500 μL Eppendorf tubes containing the compound of choice (either dimethylsulfoxide alone, or dimethylsulfoxide into which dimedone, 1,3-cyclohexanedione, 6 or 7 had been dissolved) to give a final concentration of 5 mM for the added reagent in final volumes of 50 μL, and the tubes were flushed again with argon before closing. Other redox forms of C165S AhpC or the wild-type enzyme were also tested for reactivity with one or more of these four compounds. Approximate 100 mM stock solutions of 6 or 7 in dimethylsulfoxide were standardized using expected extinction coefficients of 5,700 or 25,000 M^−1 cm^−1, respectively, for the esterified isatoic acid conjugate or the methoxycoumarin conjugate in methanol (11). Samples were incubated at room temperature for 60 min, then transferred to Apollo ultrafiltration devices (30K cutoff, Orbital Biosciences, Topsfield, Mass.), washed with 5.5 mL 10 mM ammonium bicarbonate and reconcentrated to about 50 μL, for a total of four washes (>10^8-fold dilution of the initial small molecule components).
Mass spectrometric and spectral analyses of adducts with the sulfenic acid-containing form of C165S AhpC. […]

Series [2] deals with thiol, disulfide or hyperoxidized forms of AhpC (wild type or C165S). Put plainly: Control reactions with other redox forms of AhpC (ESI-MS adduct detection). The series is classed as biochemical, Salmonella typhimurium. The conditions noted are these: for reaction with protein amine groups: reduced or oxidized wild type or reduced C165S AhpC; for reactivity of thiol, disulfide or hyperoxidized forms of AhpC (ESI-MS-detectable adduct formation): wild type or C165S.
Text: as §1
The thiol group of the reduced protein and the oxidized, disulfide-bonded form of wild type AhpC were also unreactive toward these compounds, as confirmed by electrospray ionization mass spectrometry (ESI-MS) of the ammonium bicarbonate-washed
(§3) Specificity of fluorescent, cyclohexadione-derived regents toward sulfenic acids in proteins. The known reactivity of the nucleophilic center of dimedone is toward cysteine sulfenic acids and aldehydes (15, 16). […] To test for general cross-reactivity of these reagents with other oxidized sulfur-containing functional groups, we tested the reactivity of dimedone, as a model reagent, with a S-nitrosothiol and two sulfoxides.
as §2

Series [3] in a line: Cross-reactivity with S-nitrosothiol (absorbance spectroscopy). The settings on record: one hour, room temperature.
Text: as §3

Series [4] in a line: Cross-reactivity with sulfoxide (NMR, spectroscopic and chemical isolation). The settings on record: aqueous solution.
Text: as §3

The nature of series [5]: Control reaction with aldehyde.
A short description of series [6]: Control reaction with amine.
For series [7] the following is noted: cited from earlier work.

T1 sequence (P0A251 whole entry C166S): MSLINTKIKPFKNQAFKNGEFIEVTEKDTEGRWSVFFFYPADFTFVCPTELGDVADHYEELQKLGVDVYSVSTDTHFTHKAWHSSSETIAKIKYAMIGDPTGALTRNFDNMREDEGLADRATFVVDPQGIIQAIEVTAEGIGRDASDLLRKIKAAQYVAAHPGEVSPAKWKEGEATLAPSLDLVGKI

On to `O=C1CCCC(=O)C1` [1,3-cyclohexadione, 1,3-cyclohexanedione], for which, in series [1], the “reactivity toward cysteine sulfenic acids relative to dimedone” value is “at least equivalent reactivity” and the “Observed increase in mass of product compared with R—SH form” value (from here on “Observed increase in mass of product”) came out at 109.2 amu.

`CNc1ccccc1C(=O)OCCCC1CCC(=O)CC1=O` (stereo not shown) [compound 6, 3-(2,4-Dioxocyclohexyl)propyl 2-(methylamino)benzoate]: in series [1], the “covalent adduct formation with the sulfenic acid form of the peroxidase” value was “gave covalent adducts”; the “labeling of the protein when 1:1 mixtures of 6 and 7 are added” value was “approximately equal labeling”; the “Observed increase in mass of product” value was determined as 300.7 amu. Also, in series [2], the “reaction with protein amine groups” value is on record as “do not react” and the “reactivity of thiol, disulfide or hyperoxidized forms of AhpC (ESI-MS-detectable adduct formation)” value (“reactivity of thiol” below) was “lack of reactivity”.

In the case of `COc1ccc2cc(NC(=O)OCCCC3CCC(=O)CC3=O)c(=O)oc2c1` (stereo not shown) [compound 7, 3-(2,4-Dioxocyclohexyl)propyl 7-methoxy-2-oxo-2H-chromen-3-ylcarbamate], in series [1], the “covalent adduct formation with the sulfenic acid form of the peroxidase” value is recorded as “gave covalent adducts”; the “labeling of the protein when 1:1 mixtures of 6 and 7 are added” value was “approximately equal labeling”; the “Observed increase in mass of product” value is listed as 384.5 amu. Moreover, in series [2], the “reaction with protein amine groups” value is reported as “do not react” and the “reactivity of thiol” value is given as “lack of reactivity”.

Consider `CC1(C)CC(=O)CC(=O)C1` [dimedone, 5,5-dimethyl-1,3-cyclohexanedione], for which the “Observed increase in mass of product” value in series [1] stood at 137.3 amu. In addition, the “reactivity of thiol” value in series [2] was “lack of reactivity”. The “reaction with S-nitrosoglutathione” value in series [3] is given as “fails to react”. In series [4], the “reaction with dimethyl sulfoxide” value was “does not react”. In addition, the “reaction with methionine sulfoxide” value in series [4] is “does not react”. Besides, the reaction with butyraldehyde result in series [5] (in the presence of piperidine, 50° C., aqueous ethanol) is “reacts”; in series [5] (room temperature, absence of base), “fails to react”. Also, the reaction with benzylamine result is “no reaction occurs” in series [6] (aqueous ethanol) and “condenses with benzylamine to form an imine” in series [6] (organic solvent). The “pka of active methylene group” value in series [7] was 5.15.
